Results taken from patent US7951843B2, “Amide linked modulators of γ-secretase” (Janssen Pharmaceutica N.V., priority 2007, dated 2011).

Target: γ-secretase (Homo sapiens, UniProt P49768)
Experiment: Screening for γ-secretase-modulating activity in SKNBE2 cells carrying APP 695 wild type
Assay type: cell-based
Conditions: SKNBE2 cells carrying the APP 695 wild type
Protocol: Screening of the Compounds of the Invention for γ-Secretase-modulating Activity Screening was carried out using SKNBE2 cells carrying the APP 695—wild type, grown in DMEM/NUT-mix F12 (HAM) provided by Gibco (cat no. 31330-38) containing 5% Serum/Fe supplemented with 1% non-essential amino acids. Cells were grown to near confluency. The screening was performed using the assay as described in Citron et al (1997) Nature Medicine 3: 67.

inhibition at 1 µM	Compound
24%	CC(C)CC(C(=O)O)c1cc(NC(=O)c2cc(C(F)(F)F)cc(C(F)(F)F)c2)cc(-c2ccc(C(F)(F)F)cc2)c1 (centres unmarked) [Compound 3, 2-[5-(3,5-Bis-trifluoromethyl-benzoylamino)-4′-trifluoromethyl-biphenyl-3-yl]-4-methyl-pentanoic acid]
34%	CC(C)CC(C(=O)O)c1cc(NC(=O)c2cc(F)cc(F)c2)cc(-c2ccc(C(F)(F)F)cc2)c1 (centres unmarked) [Compound 4, 2-[5-(3,5-Difluoro-benzoylamino)-4′-trifluoromethyl-biphenyl-3-yl]-4-methyl-pentanoic acid]
